These results are taken from patent US20210179578A1, “OX1 ANTAGONISTS” (Heptares Therapeutics Limited, priority 2017, published 2021).

Some results are limits rather than exact numbers.

In the assay the target is T1, human OX2 receptor (Homo sapiens, UniProt O43614).
T1 sequence (O43614 1-444): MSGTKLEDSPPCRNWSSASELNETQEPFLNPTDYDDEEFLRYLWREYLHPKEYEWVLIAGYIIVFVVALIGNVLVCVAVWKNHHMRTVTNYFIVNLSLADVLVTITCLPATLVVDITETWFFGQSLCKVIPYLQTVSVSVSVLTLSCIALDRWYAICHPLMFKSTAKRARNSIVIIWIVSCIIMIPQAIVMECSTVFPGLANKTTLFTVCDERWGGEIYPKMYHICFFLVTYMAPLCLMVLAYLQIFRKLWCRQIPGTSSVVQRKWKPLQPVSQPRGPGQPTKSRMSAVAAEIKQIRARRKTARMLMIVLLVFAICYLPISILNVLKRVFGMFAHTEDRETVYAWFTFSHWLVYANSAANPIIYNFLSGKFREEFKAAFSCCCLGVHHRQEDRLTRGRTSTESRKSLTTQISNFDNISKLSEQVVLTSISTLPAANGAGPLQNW
As to the kind of experiment: IPone accumulation assay, CHO cells expressing OX2 (antagonism of orexin A). The format is cell-based. As to conditions: CHO human OX2, orexin A EC80 challenge (40 nM), read-out: fpKb average OX2 (converted). The protocol:
Generation of CHO stable cell lines expressing the human OX1R and OX2R. Stable cell lines for the human OX1R and OX2R receptors were generated through the transfection of CHO cells using the transfection reagent Genejuice (Novagen number 70967) and cDNA coding for either the human OX1R or OX2R. Cells were cultured in Sigma Nutrient Mixture F-12 Ham media (catalog number N6658) supplemented with 10% heat-inactivated FBS. Forty-eight hours after transfection, cells were harvested and placed under geneticin selection by culturing in Sigma Nutrient Mixture F-12 Ham media supplemented with 10% heat-inactivated FBS and geneticin (ThermoFisher Catalog number: 10131035). Selection of the final stable clone for each receptor was made on the basis of receptor expression, assay signal to noise and robustness though increasing passage. Selected clones for the human OX1R and OX2R were then frozen down into liquid nitrogen using Cell Freezing Medium-DMSO (Sigma-Aldrich catalog number: C6164).
IPone accumulation assay. A CHO cell line stably expressing either human OX1 or OX2 receptor was used with the IPone HTRF assay kit (CisBio: Part #62IPAPEJ) to measure receptor activation. The assay was optimised to measure the ability (potency; fpKb) of antagonists to reduce agonist (orexin A)-induced inositol phosphate turnover. Briefly, cells were plated onto half area 96-well white walled plates at a density of 12,500 cells/well. Sixteen hours post-plating cell growth media was replaced with antagonist concentration-response curve diluted in stimulation buffer (supplied with the kit). Cells were incubated in a humidified incubator (37° C.) for 30 min before an EC80 challenge concentration (˜20 nM (OX1) and 40 nM (OX2)) of orexin A (Tocris catalogue number 1455). After 30 min stimulation in a humidified incubator (37° C.) the assay was terminated by the addition of detection mixture as per manufacturer's instructions. The concentration of compound which reduced orexin-A stimulated turnover of inositol phosphates by 50% (IC50) was calculated by fitting to a four parameter sigmoidal dose response curve. The IC50 values were converted to fpKB values using the orexin A pEC50 value estimated on each plate as well as the challenge concentration interpolated from the orexin A control curve.
As for `COc1ncc(C2CCc3c(F)cccc3N(Cc3c(F)cc(Br)cc3F)C2=O)cc1S(C)(=O)=O` (racemic) [Example 19, 1-(4-bromo-2,6-difluorobenzyl)-6-fluoro-3-[6-methoxy-5-(methylsulfonyl)pyridin-3-yl]-1,3,4,5-tetrahydro-2H-1-benzazepin-2-one], the Kb was over 3160 nM.

As to `COc1ncc(C2CCc3c(F)cccc3N(Cc3c(F)cc(Br)cc3F)C2=O)cc1C(C)(F)F` (single isomer, unassigned) [Example 12, 1-(4-bromo-2,6-difluorobenzyl)-3-[5-(1,1-difluoroethyl)-6-methoxypyridin-3-yl]-6-fluoro-1,3,4,5-tetrahydro-2H-1-benzazepin-2-one], the Kb was over 1000 nM.

Regarding `COc1ncc(C2CCc3c(F)cccc3N(Cc3cc(C#N)ccc3F)C2=O)cc1C(C)(F)F` (single isomer, unassigned) [Example 13, 3-({3-[5-(1,1-difluoroethyl)-6-methoxypyridin-3-yl]-6-fluoro-2-oxo-2,3,4,5-tetrahydro-1H-1-benzazepin-1-yl}methyl)-4-fluorobenzonitrile], the Kb was over 794 nM. As for `COc1ncc(C2CCc3c(F)cccc3N(Cc3c(F)cc(Br)cc3F)C2=O)cc1S(C)(=O)=O` (single isomer, unassigned) [Example 21, 1-(4-bromo-2,6-difluorobenzyl)-6-fluoro-3-[6-methoxy-5-(methylsulfonyl)pyridin-3-yl]-1,3,4,5-tetrahydro-2H-1-benzazepin-2-one], the Kb is over 1580 nM. For the compound `COc1ncc(C2CCc3c(F)cccc3N(Cc3c(F)cc(Cl)cc3F)C2=O)cc1S(C)(=O)=O` (single isomer, unassigned) [Example 22, 1-(4-chloro-2,6-difluorobenzyl)-6-fluoro-3-[6-methoxy-5-(methylsulfonyl)pyridin-3-yl]-1,3,4,5-tetrahydro-2H-1-benzazepin-2-one], the Kb was over 1000 nM.

For `Cc1ncc(C2CCc3c(F)cccc3N(Cc3c(F)cc(Br)cc3F)C2=O)cc1C(C)(F)F` (single isomer, unassigned) [Example 35, 1-(4-bromo-2,6-difluorobenzyl)-3-[5-(1,1-difluoroethyl)-6-methylpyridin-3-yl]-6-fluoro-1,3,4,5-tetrahydro-2H-1-benzazepin-2-one], the Kb was over 2510 nM.

Consider `Cc1ncc(C2CCc3c(F)cccc3N(Cc3c(F)cc(Br)cc3F)C2=O)cc1C(C)(F)F` (single isomer, unassigned) [Example 36, 1-(4-bromo-2,6-difluorobenzyl)-3-[5-(1,1-difluoroethyl)-6-methylpyridin-3-yl]-6-fluoro-1,3,4,5-tetrahydro-2H-1-benzazepin-2-one], for which the Kb is over 2000 nM. As for `Cc1ncc(C2CCc3c(F)cccc3N(Cc3c(F)cc(Br)cc3F)C2=O)cc1S(C)(=O)=O` (single isomer, unassigned) [Example 38, 1-(4-bromo-2,6-difluorobenzyl)-6-fluoro-3-[6-methyl-5-(methylsulfonyl)pyridin-3-yl]-1,3,4,5-tetrahydro-2H-1-benzazepin-2-one], the figure is over 398 nM; as for `Cc1ncc(C2CCc3c(F)cccc3N(Cc3c(F)cc(Br)cc3F)C2=O)cc1S(C)(=O)=O` (single isomer, unassigned) [Example 39, 1-(4-bromo-2,6-difluorobenzyl)-6-fluoro-3-[6-methyl-5-(methylsulfonyl)pyridin-3-yl]-1,3,4,5-tetrahydro-2H-1-benzazepin-2-one], over 2510 nM.

For the compound `Cc1ccc(N2CCc3c(F)cccc3N(Cc3c(F)cc(Br)cc3F)C2=O)cc1C(C)(F)F` [Example 1, 1-(4-bromo-2,6-difluorobenzyl)-3-[3-(1,1-difluoroethyl)-4-methylphenyl]-6-fluoro-1,3,4,5-tetrahydro-2H-1,3-benzodiazepin-2-one], the Kb is over 3160 nM.

Regarding `[2H]C([2H])([2H])Oc1ncc(N2CCc3c(F)cccc3N(Cc3c(F)cc(Br)cc3F)C2=O)cc1C(C)(F)F` [Example 2, 1-(4-bromo-2,6-difluorobenzyl)-3-{5-(1,1-difluoroethyl)-6-[(^2H3)methyloxy]pyridin-3-yl}-6-fluoro-1,3,4,5-tetrahydro-2H-1,3-benzodiazepin-2-one], the Kb was over 3980 nM. Take `COc1ncc(N2CCc3c(F)cccc3N(Cc3c(F)cc(Br)cc3F)C2=O)cc1C(C)(F)F` [Example 3, 1-(4-bromo-2,6-difluorobenzyl)-3-[5-(1,1-difluoroethyl)-6-methoxypyridin-3-yl]-6-fluoro-1,3,4,5-tetrahydro-2H-1,3-benzodiazepin-2-one]: the Kb was over 794 nM. In the case of `COc1ccc(CN2C(=O)N(c3cnc(OC)c(C(C)(F)F)c3)CCc3c(F)cccc32)c(F)c1` [Example 4, 3-[5-(1,1-difluoroethyl)-6-methoxypyridin-3-yl]-6-fluoro-1-(2-fluoro-4-methoxybenzyl)-1,3,4,5-tetrahydro-2H-1,3-benzodiazepin-2-one], the Kb was over 3980 nM. In the case of `[2H]C([2H])([2H])OCc1cc(F)c(CN2C(=O)N(c3cnc(OC)c(C(C)(F)F)c3)CCc3c(F)cccc32)c(F)c1` [Example 5, 3-[5-(1,1-difluoroethyl)-6-methoxypyridin-3-yl]-1-(2,6-difluoro-4-{[(^2H3)methyloxy]methyl}benzyl)-6-fluoro-1,3,4,5-tetrahydro-2H-1,3-benzodiazepin-2-one], the Kb is over 2000 nM. Consider `[2H]C([2H])([2H])Oc1cc(F)c(CN2C(=O)N(c3cnc(OC)c(C(C)(F)F)c3)CCc3c(F)cccc32)c(F)c1` [Example 6, 3-[5-(1,1-difluoroethyl)-6-methoxypyridin-3-yl]-1-{2,6-difluoro-4-[(^2H3)methyloxy]benzyl}-6-fluoro-1,3,4,5-tetrahydro-2H-1,3-benzodiazepin-2-one], for which the Kb was 398 nM. In the case of `COCc1cc(F)c(CN2C(=O)N(c3cnc(OC)c(C(C)(F)F)c3)CCc3c(F)cccc32)c(F)c1` [Example 7, 3-[5-(1,1-difluoroethyl)-6-methoxypyridin-3-yl]-1-[2,6-difluoro-4-(methoxymethyl)benzyl]-6-fluoro-1,3,4,5-tetrahydro-2H-1,3-benzodiazepin-2-one], the Kb is over 3980 nM.

In the case of `COc1cc(F)c(CN2C(=O)N(c3cnc(OC)c(C(C)(F)F)c3)CCc3c(F)cccc32)c(F)c1` [Example 8, 3-[5-(1,1-difluoroethyl)-6-methoxypyridin-3-yl]-1-(2,6-difluoro-4-methoxybenzyl)-6-fluoro-1,3,4,5-tetrahydro-2H-1,3-benzodiazepin-2-one], the Kb is over 316 nM.

Take `COc1ncc(N2CCc3c(F)cccc3N(Cc3c(F)cc(Cl)cc3F)C2=O)cc1C(C)(F)F` [Example 9, 1-(4-chloro-2,6-difluorobenzyl)-3-[5-(1,1-difluoroethyl)-6-methoxypyridin-3-yl]-6-fluoro-1,3,4,5-tetrahydro-2H-1,3-benzodiazepin-2-one]: the Kb is over 3160 nM.

For `COc1ncc(N2CCc3c(F)cccc3N(Cc3ccc(Br)cc3F)C2=O)cc1C(C)(F)F` [Example 10, 1-(4-bromo-2-fluorobenzyl)-3-[5-(1,1-difluoroethyl)-6-methoxypyridin-3-yl]-6-fluoro-1,3,4,5-tetrahydro-2H-1,3-benzodiazepin-2-one], the Kb is over 2510 nM. Turning to `COc1ncc(N2CCc3c(F)cccc3N(Cc3c(F)cc(Br)cc3F)C2=O)cc1S(C)(=O)=O` [Example 14, 1-(4-bromo-2,6-difluorobenzyl)-6-fluoro-3-[6-methoxy-5-(methylsulfonyl)pyridin-3-yl]-1,3,4,5-tetrahydro-2H-1,3-benzodiazepin-2-one], the Kb was over 794 nM.
